Source: paper PMC1977804, “Somatostatin binding in normal and malignant human gastrointestinal mucosa” (British Journal of Cancer, 1992)
Where two headings read alike, the source gives them in different places. Bridges are numbered along the chain shown (N, C = ends). Where no end group is shown, it is not given here. The star is where a group is joined. 125I = [125I]*

What was measured:
[1] = native peptide; no reference printed for this sentence; cited from earlier work
Description: Br. J. Cancer (1992), 66, 391 395 ? Macmillan Press Ltd., 1992~~~~~~~~~~~~~~~~~~~~~~~~~~~~~~~~~~~~~~~~~~~~~~~~~~~~~~~~~~~~~~ Somatostatin binding in normal and malignant human gastrointestinal mucosa G.V. Miller, S.M. Farmery, L.F. Woodhouse & J.N. Primrose University Department of Surgery, St. James's University Hospital, Beckett Street, Leeds LS9 7TF, UK. Summary Somatostatin is a regulatory peptide implicated in the control of cellular proliferation in epithelial tissues and this regulation may occur directly via membrane bound receptor activation. The aim of this study was to investigate s ...

[2] = tested on: somatostatin binding sites, gastric body mucosal plasma membranes; assay: competitive displacement of 125I-tyr-11-somatostatin-14, normal gastric body mucosa plasma membranes; set-up: species or system human; conditions: 21 of 28 preparations, including mucosa of the patient with high affinity tumour, Scatchard/LIGAND, pH 7.4, 1 h, 35 °C, median (quartiles)
Description: (§1) Br. J. Cancer (1992), 66, 391 395 ? Macmillan Press Ltd., 1992~~~~~~~~~~~~~~~~~~~~~~~~~~~~~~~~~~~~~~~~~~~~~~~~~~~~~~~~~~~~~~ Somatostatin binding in normal and malignant human gastrointestinal mucosa G.V. Miller, S.M. Farmery, L.F. Woodhouse & J.N. Primrose University Department of Surgery, St. James's University Hospital, Beckett Street, Leeds LS9 7TF, UK. Summary Somatostatin is a regulatory peptide implicated in the control of cellular proliferation in epithelial tissues and this regulation may occur directly via membrane bound receptor activation. The aim of this study was to investigate somatostatin binding in human gastrointestinal cancer and normal mucosa. Plasma membranes were prepared from specimens of tumour and normal mucosa from 51 patients undergoing surgical resection for malignancy (28 gastric, 23 colorectal). Using a competitive displacement assay, specific '251-tyrosine -1 -somatostatin-14 binding to plasma membranes was assessed and characterised in terms of receptor affinity (Kd) and maximum binding capacity (Bmax) as determined by Scatchard analysis. […] Similar affinity and binding capacity was demonstrable in normal mucosal samples. […] The functional significance of these low affinity binding sites requires elucidation to determine whether long-acting somatostatin analogues may have therapeutic benefit in gastrointestinal malignancy. […]

[3] = tested on: somatostatin receptors, rat cerebral cortex membranes; assay: competitive displacement of 125I-tyr-11-somatostatin-14, rat cerebral cortex plasma membranes (positive control); type: binding, rat (Wistar)
Description: Br. J. Cancer (1992), 66, 391 395 ? Macmillan Press Ltd., 1992~~~~~~~~~~~~~~~~~~~~~~~~~~~~~~~~~~~~~~~~~~~~~~~~~~~~~~~~~~~~~~ Somatostatin binding in normal and malignant human gastrointestinal mucosa G.V. Miller, S.M. Farmery, L.F. Woodhouse & J.N. Primrose University Department of Surgery, St. James's University Hospital, Beckett Street, Leeds LS9 7TF, UK. Summary Somatostatin is a regulatory peptide implicated in the control of cellular proliferation in epithelial tissues and this regulation may occur directly via membrane bound receptor activation. The aim of this study was to investigate somatostatin binding in human gastrointestinal cancer and normal mucosa. Plasma membranes were prepared from specimens of tumour and normal mucosa from 51 patients undergoing surgical resection for malignancy (28 gastric, 23 colorectal). Using a competitive displacement assay, specific '251-tyrosine -1 -somatostatin-14 binding to plasma membranes was assessed and characterised in terms of receptor affinity (Kd) and maximum binding capacity (Bmax) as determined by Scatchard analysis. […] Similar affinity and binding capacity was demonstrable in normal mucosal samples. […] The functional significance of these low affinity binding sites requires elucidation to determine whether long-acting somatostatin analogues may have therapeutic benefit in gastrointestinal malignancy. Hormonal manipulation, by surgical or medical methods, has been used extensively in therapy for carcinoma of the breast, prostate, thyroid and in certain gut endocrine tumours (Horowitz et al., 1975; Higgins et al., 1941; Crile, 1957; Osei et al., 1985). There is, however, no currently defined role for endocrine therapy in non-endocrine gastrointestinal cancer. […] Any benefit from systemic therapy is usually abrogated by systemic toxicity (Rake et al., 1979; Engstrom et al., 1985; Bleiberg, 1990). For this reason a non-toxic, effective, treat- ment modality would be of value to improve the outlook for those patients with advanced disease. There is increasing evidence that tumours arising from the gastrointestinal tract are, at least in part, hormone depen- dent. Numerous hormones have now been implicated in the pathogenesis and development of gastrointestinal malig- nancy, including gastrin, epidermal growth factor, entero- pancreatic hormones and oestrogenic steroids (Sirinek et al., 1985; Watson et al., 1988; Li et al., 1980; Howatson & Carter, 1985; McMichael et al., 1980). […] Somatostatin and its analogues are good candidates for use as endocrine agents in the treatment of gastrointestinal cancer. […]

[4] = tested on: somatostatin binding sites, human gastric adenocarcinoma membranes; assay: competitive displacement of 125I-tyr-11-somatostatin-14, human gastric adenocarcinoma plasma membranes
Description: (§2) Br. J. Cancer (1992), 66, 391 395 ? Macmillan Press Ltd., 1992~~~~~~~~~~~~~~~~~~~~~~~~~~~~~~~~~~~~~~~~~~~~~~~~~~~~~~~~~~~~~~ Somatostatin binding in normal and malignant human gastrointestinal mucosa G.V. Miller, S.M. Farmery, L.F. Woodhouse & J.N. Primrose University Department of Surgery, St. James's University Hospital, Beckett Street, Leeds LS9 7TF, UK. Summary Somatostatin is a regulatory peptide implicated in the control of cellular proliferation in epithelial tissues and this regulation may occur directly via membrane bound receptor activation. The aim of this study was to investigate somatostatin binding in human gastrointestinal cancer and normal mucosa. Plasma membranes were prepared from specimens of tumour and normal mucosa from 51 patients undergoing surgical resection for malignancy (28 gastric, 23 colorectal). Using a competitive displacement assay, specific '251-tyrosine -1 -somatostatin-14 binding to plasma membranes was assessed and characterised in terms of receptor affinity (Kd) and maximum binding capacity (Bmax) as determined by Scatchard analysis. […] Similar affinity and binding capacity was demonstrable in normal mucosal samples. […] The functional significance of these low affinity binding sites requires elucidation to determine whether long-acting somatostatin analogues may have therapeutic benefit in gastrointestinal malignancy. Hormonal manipulation, by surgical or medical methods, has been used extensively in therapy for carcinoma of the breast, prostate, thyroid and in certain gut endocrine tumours (Horowitz et al., 1975; Higgins et al., 1941; Crile, 1957; Osei et al., 1985). There is, however, no currently defined role for endocrine therapy in non-endocrine gastrointestinal cancer. […] Any benefit from systemic therapy is usually abrogated by systemic toxicity (Rake et al., 1979; Engstrom et al., 1985; Bleiberg, 1990). For this reason a non-toxic, effective, treat- ment modality would be of value to improve the outlook for those patients with advanced disease. There is increasing evidence that tumours arising from the gastrointestinal tract are, at least in part, hormone depen- dent. Numerous hormones have now been implicated in the pathogenesis and development of gastrointestinal malig- nancy, including gastrin, epidermal growth factor, entero- pancreatic hormones and oestrogenic steroids (Sirinek et al., 1985; Watson et al., 1988; Li et al., 1980; Howatson & Carter, 1985; McMichael et al., 1980). […] Somatostatin and its analogues are good candidates for use as endocrine agents in the treatment of gastrointestinal cancer. The native peptide is widely distributed in the body and, amongst its many inhibitory actions, has a putative role as an anti-proliferative agent in both normal (Lehy et al., 1979) and malignant (Singh et al., 1986) tissue. The mechanisms involved in this anti-proliferative action have not, as yet, been confirmed. Both the native peptide and its analogues act at the somatotrophs of the anterior pituitary suppressing growth hormone production and release (Adrian et al., 1981). This may influence the proliferation of target tissues directly or may result in a substantial reduction in local growth factor release (Kirkegaard et al., 1984). Further, the production of other trophic hormones such as gastrin Correspondence: J.N. Primrose, University Department of Surgery, Clinical Sciences Building, St James's University Hospital, Beckett St, Leeds LS9 7TF, UK. Received 18 November 1991; and in revised form 9 March 1992. and insulin, either from normal cells or from hormonally active tumour cells, could be suppressed by somatostatin (Morris et al., 1988). The most interesting mechanism, how- ever, involves the interaction of the peptide with specific membrane bound receptors upon proliferating cells. […]

[5] = tested on: somatostatin binding sites, colorectal adenocarcinoma plasma membranes; assay: competitive displacement of 125I-tyr-11-somatostatin-14, human colorectal adenocarcinoma plasma membranes; conditions: for Bmax: Table I, colorectal
Description: as §2

[6] = tested on: somatostatin binding sites, normal colonic mucosa plasma membranes; assay: competitive displacement of 125I-tyr-11-somatostatin-14, normal colonic mucosa plasma membranes; set-up: species or system human; conditions: 15 of 23 preparations; Scatchard/LIGAND; pH 7.4, 1 h, 35 °C; median (quartiles)
Description: as §1

Substance: somatostatin-14
- half life in the circulation [1]: less than 3 min
- Bmax, low affinity high capacity binding [2]: 3.9 (1.2-6.6) pmol mg-1 protein
- Kd ([2]; read-out: Kd, low affinity high capacity binding): 180 nM
- Bmax ([3]; Figure 1 inset, single representative experiment, Scatchard plot by LIGAND): 0.21 pmol mg-1 protein
- Kd ([3]; Figure 1 inset, single representative experiment, Scatchard plot by LIGAND, read-out: Kd): 0.92 nM
- Kd ([3]; Scatchard/LIGAND, HEPES-KOH pH 7.4, 1 h, 35 °C, median (range), read-out: receptor affinity (Kd)): 0.85 nM
- Bmax ([4]; Figure 2 inset, single representative experiment, Scatchard plot): 6.1 pmol mg-1 protein
- Kd ([4]; Figure 2 inset, single representative experiment, Scatchard plot, read-out: Kd): 165 nM
- Bmax ([4]; Table I, gastric, grade Mod, pH 7.4, 1 h, 35 °C, median (quartiles)): 1.04 (0.23-6.23) pmol mg-1 protein
- Bmax ([4]; Table I, gastric, grade Poor, pH 7.4, 1 h, 35 °C, median (quartiles)): 1.17 (0.67-5.71) pmol mg-1 protein
- Bmax ([4]; Table I, gastric, grade Well, pH 7.4, 1 h, 35 °C, one sample): 5.11 pmol mg-1 protein
- Bmax ([4]; Table I, gastric, site: Antrum, pH 7.4, 1 h, 35 °C, median (quartiles)): 1.04 (0.67 -3.36) pmol mg-1 protein
- Bmax ([4]; Table I, gastric, site: Body, pH 7.4, 1 h, 35 °C, median (quartiles)): 0.83 (0.25 -7.43) pmol mg-1 protein
- Bmax ([4]; Table I, gastric, site: Cardia, pH 7.4, 1 h, 35 °C, median (quartiles)): 1.73 (1.23-5.11) pmol mg-1 protein
- Bmax ([4]; Table I, gastric, stage I (TNM), pH 7.4, 1 h, 35 °C, one sample): 0.28 pmol mg-1 protein
- Bmax ([4]; Table I, gastric, stage II (TNM), pH 7.4, 1 h, 35 °C, median (quartiles)): 0.79 (0.23-1.04) pmol mg-1 protein
- Bmax ([4]; Table I, gastric, stage III (TNM), pH 7.4, 1 h, 35 °C, median (quartiles)): 1.24 (0.77-6.11) pmol mg-1 protein
- Bmax ([4]; Table I, gastric, stage IV (TNM), pH 7.4, 1 h, 35 °C, one sample): 6.3 pmol mg-1 protein
- Bmax, low affinity high capacity binding ([4]; abstract, 22 gastric cancers, Scatchard analysis): 1.2 pmol mg-1 protein
- Bmax, high affinity receptors ([4]; one gastric carcinoma (one patient), Scatchard/LIGAND): 0.23 pmol mg-1 protein
- Kd ([4]; one gastric carcinoma (one patient), Scatchard/LIGAND, read-out: Kd, high affinity receptors): 0.9 nM
- Bmax, low affinity high capacity binding ([5]; 17 of 23 preparations, Scatchard/LIGAND, pH 7.4, 1 h, 35 °C, median (quartiles)): 1.8 (1.2-2.9) pmol mg-1 protein
- Bmax ([5]; grade Mod, pH 7.4, 1 h, 35 °C, median (quartiles)): 1.72 (1.30-2.69) pmol mg-1 protein
- Bmax ([5]; grade Poor, pH 7.4, 1 h, 35 °C, median (quartiles)): 1.81 (0.74-2.87) pmol mg-1 protein
- Bmax ([5]; grade Well, pH 7.4, 1 h, 35 °C, median (quartiles)): 1.75 (0.49-2.99) pmol mg-1 protein
- Bmax ([5]; site: (R) Colon, pH 7.4, 1 h, 35 °C, median (quartiles)): 2.99 (2.12-3.94) pmol mg-1 protein
- Bmax ([5]; site: Rectum, pH 7.4, 1 h, 35 °C, median (quartiles)): 1.67 (1.02-2.78) pmol mg-1 protein
- Bmax ([5]; site: Sigmoid, pH 7.4, 1 h, 35 °C, median (quartiles)): 0.49 (0.11 -1.75) pmol mg-1 protein
- Bmax ([5]; stage A (Dukes), pH 7.4, 1 h, 35 °C, one sample): 3.40 pmol mg-1 protein
- Bmax ([5]; stage B (Dukes), pH 7.4, 1 h, 35 °C, median (quartiles)): 1.72 (1.30-2.99) pmol mg-1 protein
- Bmax ([5]; stage C (Dukes), pH 7.4, 1 h, 35 °C, median (quartiles)): 1.48 (0.62-2.41) pmol mg-1 protein
- Bmax, low affinity high capacity binding ([5]; abstract, 17 colorectal cancers, Scatchard analysis): 1.8 pmol mg-1 protein
- Kd ([5]; abstract, 17 colorectal cancers, Scatchard analysis, read-out: Kd, low affinity binding): 140 nM
- Bmax [6]: 0.7 (0.3-3.5) pmol mg-1 protein
- Kd [6]: 130 nM

Substance: 125I-tyrosine-11-somatostatin-14 (AGCKNFFWKTY(125I)TSC; disulfide 3-14; ends not checked; UniProt P61278 103-116, looked up, variant F11Y) [125I-tyr-11-somatostatin-14, radioligand made by Chloramine T iodination of tyr-11-somatostatin-14]
- increase in specific bound counts at 35 °C versus 21 °C ([3]; 35 °C versus room temperature (21 °C)): 20-30%
- Bmax, low affinity binding ([4]; 22 of 28 tumours, Scatchard/LIGAND, pH 7.4, 1 h, 35 °C, median (quartiles)): 1.2 (0.7-5.7) pmol mg-1 protein
- Kd ([4]; 22 of 28 tumours, Scatchard/LIGAND, pH 7.4, 1 h, 35 °C, median (quartiles), read-out: affinity (Kd), low affinity binding): 170 nM
